According to patent US9187424B1, “Aryl dihydropyridinones and piperidinone MGAT2 inhibitors” (Bristol-Myers Squibb Company, priority 2011, dated 2015):
Each block holds one compound with its values, some of them ahead of it.

Key:
Human MGAT-2 [1] = biological target: T1, Human MGAT-2 (Homo sapiens (Human), UniProt Q3SYC2); test: MGAT SPA Assay; assay type: biochemical; conditions: membranes from Sf9 cells expressing recombinant human MGAT2; 2-monooleoylglycerol and [3H]-oleoyl-CoA;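 also: inhibition scaled between DMSO vehicle as full MGAT2 activity and membranes of uninfected Sf9 cells as blank, IC50 fitted by logistic curve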
Human MGAT-2 [2] = biological target: T1, Human MGAT-2; test: MGAT LCMS Assay (human MGAT-2); assay type: biochemical; conditions: human MGAT-2 membranes expressed in Sf9 cells; 2-oleoylglycerol and oleoyl-Coenzyme A; read-out: h-MGAT2 IC50 (nM) LCMS Assay;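 also: diolein product quantified by LC/MS with positive APCI, expressed as peak area ratio versus an internal standard, and this ratio used to derive IC50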

T1 sequence (Q3SYC2 whole entry): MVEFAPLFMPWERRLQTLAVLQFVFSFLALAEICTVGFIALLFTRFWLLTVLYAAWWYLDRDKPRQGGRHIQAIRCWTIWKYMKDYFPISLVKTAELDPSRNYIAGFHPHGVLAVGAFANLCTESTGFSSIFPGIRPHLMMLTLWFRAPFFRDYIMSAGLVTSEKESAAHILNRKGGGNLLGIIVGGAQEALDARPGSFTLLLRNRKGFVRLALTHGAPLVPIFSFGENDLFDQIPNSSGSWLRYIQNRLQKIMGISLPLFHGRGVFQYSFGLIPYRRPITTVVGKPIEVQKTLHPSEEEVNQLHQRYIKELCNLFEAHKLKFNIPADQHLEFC

SMILES: Cc1ccc(C2=C(c3nnc(C(F)(F)F)o3)C(=O)NC(c3ccc(OCCCC(F)(F)F)cc3)(C(F)(F)F)C2)cc1 (stereo not shown) [Example 10, 4-p-Tolyl-6-(4-(4,4,4-trifluorobutoxyl)phenyl)-6-(trifluoromethyl)-3-(5-(trifluoromethyl)-1,3,4-oxadiazol-2-yl)-5,6-dihydropyridin-2(1H)-one]
IC50 (Human MGAT-2 [1]): 2720 nM
IC50 (Human MGAT-2 [2]): 138 nM

SMILES: COc1cnc(NC(=O)C2=C(c3ccc(C)cc3)CC(c3ccc(OCCCCC(F)(F)F)cc3)(C(F)(F)F)NC2=O)cn1 (stereo not shown) [Example 273]
IC50 (Human MGAT-2 [1]): 21 nM
IC50 (Human MGAT-2 [2]): 10 nM

SMILES: COc1ccc(C2=C[C@](c3ccc(OCCCC(F)(F)F)cc3)(C(F)(F)F)NC(=O)C2(F)C#N)cc1 (single isomer, unassigned) [Example 15-1, 3-Fluoro-4-(4-methoxyphenyl)-2-oxo-6-(4-(4,4,4-trifluorobutoxyl)phenyl)-6-(trifluoromethyl)-1,2,3,6-tetrahydropyridine-3-carbonitrile]
IC50 (Human MGAT-2 [1]): 3310 nM
IC50 (Human MGAT-2 [2]): 12 nM

SMILES: Cc1ccc(C2=C(C(=O)Nc3ccc(O)cc3)C(=O)NC(c3ccc(OCCCC(F)(F)F)cc3)(C(F)(F)F)C2)cc1 (stereo not shown) [Example 122]
IC50 (Human MGAT-2 [1]): 14 nM
IC50 (Human MGAT-2 [2]): 1 nM

SMILES: Cc1ccc(C2=C(C(=O)Nc3ccc(OC(F)(F)F)cc3)C(=O)NC(C)(c3ccc(OCCCC(F)(F)F)cc3)C2)cc1 (stereo not shown) [Example 11, 6-Methyl-2-oxo-4-p-tolyl-6-(4-(4,4,4-trifluorobutoxyl)phenyl)-N-(4-(trifluoromethoxy)-phenyl)-1,2,5,6-tetrahydropyridine-3-carboxamide]
IC50 (Human MGAT-2 [1]): 48 nM
IC50 (Human MGAT-2 [2]): 13 nM

SMILES: COc1cccc(C2=C(C#N)C(=O)NC(c3ccc(OCCCC(F)(F)F)cc3)(C(F)(F)F)C2)c1 (stereo not shown) [Example 64]
IC50 (Human MGAT-2 [1]): 761 nM
IC50 (Human MGAT-2 [2]): 280 nM

SMILES: COc1ccc(C(=O)NC2=C(c3ccc(C)cc3)C(F)(F)C(c3ccc(OCCCC(F)(F)F)cc3)(C(F)(F)F)NC2=O)cc1 (stereo not shown) [Example 163]
IC50 (Human MGAT-2 [1]): 1180 nM
IC50 (Human MGAT-2 [2]): 47 nM

SMILES: Cc1ccc(C2=C(C#N)C(=O)NC(c3ccc(OCCOC(C)(C)C)cc3)(C(F)(F)F)C2)cc1 (stereo not shown) [Example 34]
IC50 (Human MGAT-2 [1]): 656 nM
IC50 (Human MGAT-2 [2]): 126 nM

SMILES: COc1ccc(NC(=O)C2C(=O)N[C@@](c3ccc(OCCCC(F)(F)F)cc3)(C(F)(F)F)CC2c2ccc(C)cc2)cc1 (single isomer, unassigned) [Example 16-2, N-(4-Methoxyphenyl)-2-oxo-4-p-tolyl-6-(4-(4,4,4-trifluorobutoxyl)phenyl)-6-(trifluoromethyl)piperidine-3-carboxamide]
IC50 (Human MGAT-2 [1]): 8430 nM
IC50 (Human MGAT-2 [2]): 416 nM

SMILES: Cc1ccc(C2=C(C#N)C(=O)NC(c3ccc(OCC(F)(F)F)cc3)(C(F)(F)F)C2)cc1 (stereo not shown) [Example 89]
IC50 (Human MGAT-2 [1]): 731 nM
IC50 (Human MGAT-2 [2]): 20 nM

SMILES: Cc1ccc(C2=C(NC(=O)c3cc(Br)no3)C(=O)NC(c3ccc(OCCCC(F)(F)F)cc3)(C(F)(F)F)C2)cc1 (stereo not shown) [Example 179]
IC50 (Human MGAT-2 [1]): 24 nM
IC50 (Human MGAT-2 [2]): 2 nM

SMILES: Cc1ccc(C2=C(NC(=O)c3cc(F)ccc3Cl)C(=O)NC(c3ccc(OCCCC(F)(F)F)cc3)(C(F)(F)F)C2)cc1 (stereo not shown) [Example 171]
IC50 (Human MGAT-2 [1]): 724 nM
IC50 (Human MGAT-2 [2]): 57 nM

SMILES: Cc1ccc(C2=C(NC(=O)c3ccccc3C)C(=O)N[C@@](c3ccc(OCCCC(F)(F)F)cc3)(C(F)(F)F)C2)cc1 [Example 105, (S)-2-Methyl-N-(2-oxo-4-p-tolyl-6-(4-(4,4,4-trifluorobutoxyl)phenyl)-6-(trifluoromethyl)-1,2,5,6-tetrahydropyridin-3-yl)benzamide]
IC50 (Human MGAT-2 [1]): 672 nM
IC50 (Human MGAT-2 [2]): 24 nM

SMILES: CCCCCCCCNC(=O)C1(C)CC(c2ccc(C)cc2)=C(C(=O)Nc2ccc(OC)cc2)C(=O)N1 (stereo not shown) [Example 174]
IC50 (Human MGAT-2 [1]): 237 nM
IC50 (Human MGAT-2 [2]): 60 nM

Further compounds by falling IC50 (Human MGAT-2 [1]), results first:

IC50 (Human MGAT-2 [1]): 7520 nM
IC50 (Human MGAT-2 [2]): 1280 nM
SMILES: N#CC1=C(c2cccc(Cl)c2)CC(c2ccc(OCCCC(F)(F)F)cc2)(C(F)(F)F)NC1=O (stereo not shown) [Example 68]

IC50 (Human MGAT-2 [1]): 1460 nM
IC50 (Human MGAT-2 [2]): 7 nM
SMILES: Cc1ccc(C2=C(C(=O)Nc3ccc(C)c(F)c3)C(=O)NC(c3ccc(OCCCC(F)(F)F)cc3)(C(F)(F)F)C2)cc1 (stereo not shown) [Example 85]

IC50 (Human MGAT-2 [1]): 1300 nM
IC50 (Human MGAT-2 [2]): 204 nM
SMILES: Cc1ccc(C2=C(c3nn[nH]n3)C(=O)NC(c3ccc(Br)cc3)(C(F)(F)F)C2)cc1 (stereo not shown) [Example 112]

IC50 (Human MGAT-2 [1]): 873 nM
IC50 (Human MGAT-2 [2]): 209 nM
SMILES: N#CC1=C(c2ccc(C(F)(F)F)cc2)CC(c2ccc(OCCCC(F)(F)F)cc2)(C(F)(F)F)NC1=O (stereo not shown) [Example 75]

IC50 (Human MGAT-2 [1]): 846 nM
IC50 (Human MGAT-2 [2]): 20 nM
SMILES: CCCCCNC(=O)C1=C(c2ccc(C)cc2)CC(c2ccc(OCCCC(F)(F)F)cc2)(C(F)(F)F)NC1=O (stereo not shown) [Example 55]

IC50 (Human MGAT-2 [1]): 684 nM
IC50 (Human MGAT-2 [2]): 15 nM
SMILES: N#CC1=C(c2ccc3ccccc3c2)CC(c2ccc(OCCCC(F)(F)F)cc2)(C(F)(F)F)NC1=O (stereo not shown) [Example 73]

IC50 (Human MGAT-2 [1]): 397 nM
IC50 (Human MGAT-2 [2]): 25 nM
SMILES: N#CC1=C(c2ccc3ccccc3c2)CC(c2ccc(OCCCC(F)(F)F)cc2)(C(F)(F)F)NC1=O (stereo not shown) [Example 146]

IC50 (Human MGAT-2 [1]): 258 nM
IC50 (Human MGAT-2 [2]): 20 nM
SMILES: Cc1ccc(C2=C(C(=O)Nc3ccc(F)cc3)C(=O)NC(c3ccc(OCc4ccccc4)cc3)(C(F)(F)F)C2)cc1 (stereo not shown) [Example 54]

IC50 (Human MGAT-2 [1]): 242 nM
IC50 (Human MGAT-2 [2]): 95 nM
SMILES: Cc1ccc(C2=C(C(=O)Nc3ccc(F)cc3)C(=O)NC(c3ccc(-c4cnccn4)cc3)(C(F)(F)F)C2)cc1 (stereo not shown) [Example 50]

IC50 (Human MGAT-2 [1]): 226 nM
IC50 (Human MGAT-2 [2]): 7 nM
SMILES: Cc1ccc(C2=C(C(=O)Nc3ccc(F)cc3)C(=O)NC(c3ccc(Oc4ccccc4)cc3)(C(F)(F)F)C2)cc1 (stereo not shown) [Example 48]

IC50 (Human MGAT-2 [1]): 201 nM
IC50 (Human MGAT-2 [2]): 1 nM
SMILES: Cc1ccc(C2=C(C(=O)Nc3ccc(C(F)(F)F)cc3)C(=O)NC(c3ccc(OCCCC(F)(F)F)cc3)(C(F)(F)F)C2)cc1 (stereo not shown) [Example 86]

IC50 (Human MGAT-2 [1]): 156 nM
IC50 (Human MGAT-2 [2]): 4 nM
SMILES: COc1ccc(C2=C(n3cnnn3)C(=O)NC(c3ccc(OCCCC(F)(F)F)cc3)(C(F)(F)F)C2)cc1 (stereo not shown) [Example 143]

IC50 (Human MGAT-2 [1]): 154 nM
IC50 (Human MGAT-2 [2]): 69 nM
SMILES: O=C1NC(c2ccc(OCCCC(F)(F)F)cc2)(C(F)(F)F)CC(c2ccc(C(F)(F)F)cc2)=C1c1nn[nH]n1 (stereo not shown) [Example 98]

IC50 (Human MGAT-2 [1]): 102 nM
IC50 (Human MGAT-2 [2]): 9 nM
SMILES: COc1ccc(NC(=O)C2=C(c3ccc(C)cc3C)CC(c3ccc(OCCCC(F)(F)F)cc3)(C(F)(F)F)NC2=O)cc1 (stereo not shown) [Example 148]

IC50 (Human MGAT-2 [1]): 93 nM
IC50 (Human MGAT-2 [2]): 10 nM
SMILES: COc1ccc(C2=C(n3cnnn3)C(=O)NC(c3ccc(OCCCC(F)(F)F)cc3)(C(F)(F)F)C2)c(F)c1 (stereo not shown) [Example 142]

IC50 (Human MGAT-2 [1]): 63 nM
IC50 (Human MGAT-2 [2]): 13 nM
SMILES: CCCCCc1ccc(C2(C(F)(F)F)CC(c3ccc(C)cc3)=C(C(=O)Nc3ccc(F)cc3)C(=O)N2)cc1 (stereo not shown) [Example 51]

IC50 (Human MGAT-2 [1]): 60 nM
IC50 (Human MGAT-2 [2]): 8 nM
SMILES: Cc1ccc(C2=C(C(=O)Nc3ccc(F)cc3)C(=O)NC(c3ccc(Oc4ccccc4)cc3)(C(F)(F)F)C2)cc1 (stereo not shown) [Example 165]

IC50 (Human MGAT-2 [1]): 47 nM
IC50 (Human MGAT-2 [2]): 78 nM
SMILES: COc1ccc(NC(=O)C2=C(c3ccc(C)cc3)CC(C)(C(=O)NCCCCc3ccccc3)NC2=O)cc1 (stereo not shown) [Example 178]

IC50 (Human MGAT-2 [1]): 37 nM
IC50 (Human MGAT-2 [2]): 30 nM
SMILES: O=C1NC(c2ccc(OCCCC(F)(F)F)cc2)(C(F)(F)F)CC(c2ccc(OC(F)F)cc2)=C1c1nn[nH]n1 (stereo not shown) [Example 93]

IC50 (Human MGAT-2 [1]): 32 nM
IC50 (Human MGAT-2 [2]): 4 nM
SMILES: Cc1ccc(C2=C(c3ccc(OC(F)(F)F)cc3)C(=O)NC(c3ccc(OCCCC(F)(F)F)cc3)(C(F)(F)F)C2)cc1 (stereo not shown) [Example 94]

IC50 (Human MGAT-2 [1]): 8 nM
IC50 (Human MGAT-2 [2]): 2 nM
SMILES: O=C1NC(c2ccc(OCCCC(F)(F)F)cc2)(C(F)(F)F)CC(c2ccc(OC(F)F)cc2)=C1NC(=O)c1ccno1 (stereo not shown) [Example 167]
